# Laboratory results taken from patent publication US20240124504A1, “AROMATIC HETEROCYCLIC COMPOUND, AND PHARMACEUTICAL COMPOSITION AND APPLICATION THEREOF” (GT APEIRON THERAPEUTICS LIMITED, priority 2020, published 2024).
# pIC50: −log10 of the molar value.
# Assays:
# [1] = molecular target: CDK7/cyclinH/MAT1 complex (Homo sapiens, UniProt P50613); assay: In-vitro enzymatic inhibitory activity testing, CDK7 inhibition assay (Caliper EZ Reader II); assay type: biochemical; conditions: CDK7/cyclinH/MAT1 6 nM, 180 min at 27° C.
# CDK7/cyclinH/MAT1 complex, sequence (P50613 whole entry, species assumed): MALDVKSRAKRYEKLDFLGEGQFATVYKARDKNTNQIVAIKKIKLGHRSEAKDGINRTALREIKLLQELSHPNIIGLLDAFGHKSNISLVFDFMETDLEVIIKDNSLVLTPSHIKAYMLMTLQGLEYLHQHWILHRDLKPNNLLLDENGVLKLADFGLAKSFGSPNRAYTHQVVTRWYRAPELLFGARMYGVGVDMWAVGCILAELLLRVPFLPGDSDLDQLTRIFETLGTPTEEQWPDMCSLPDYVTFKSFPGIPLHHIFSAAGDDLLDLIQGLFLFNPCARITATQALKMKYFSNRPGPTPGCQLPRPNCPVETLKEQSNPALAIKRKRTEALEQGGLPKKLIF
# CDK7/cyclinH/MAT1 complex, sequence (P51946 whole entry partner, species assumed): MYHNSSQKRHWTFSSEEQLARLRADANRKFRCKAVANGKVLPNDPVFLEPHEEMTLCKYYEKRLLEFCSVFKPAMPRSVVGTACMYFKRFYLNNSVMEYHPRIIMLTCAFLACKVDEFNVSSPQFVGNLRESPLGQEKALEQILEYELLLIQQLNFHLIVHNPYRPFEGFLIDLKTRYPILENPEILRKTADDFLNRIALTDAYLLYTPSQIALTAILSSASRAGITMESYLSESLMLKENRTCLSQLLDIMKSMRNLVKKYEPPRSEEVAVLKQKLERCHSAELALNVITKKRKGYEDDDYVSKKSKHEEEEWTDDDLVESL
# CDK7/cyclinH/MAT1 complex, sequence (P51948 whole entry partner, species assumed): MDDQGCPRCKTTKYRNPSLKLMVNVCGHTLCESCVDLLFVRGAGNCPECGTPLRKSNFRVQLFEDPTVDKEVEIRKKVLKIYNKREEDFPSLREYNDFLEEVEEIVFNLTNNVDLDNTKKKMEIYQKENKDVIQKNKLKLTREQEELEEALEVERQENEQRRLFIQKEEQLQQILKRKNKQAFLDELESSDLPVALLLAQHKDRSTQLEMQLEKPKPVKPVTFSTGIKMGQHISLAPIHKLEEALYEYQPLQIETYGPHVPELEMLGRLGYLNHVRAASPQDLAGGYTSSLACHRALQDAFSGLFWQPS
# In short: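 Enzyme preincubated 10 min with compound, then peptide substrate plus ATP added in 80 mM MES pH 6.5, 10 mM MgCl2 buffer; 180 min at 27 °C, stopped with EDTA.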
# CDK2/cyclinE1 complex = CDK2/cyclinE1 complex (Homo sapiens, UniProt P24941); assay: In-vitro enzymatic inhibitory activity testing, CDK2 inhibition assay (Caliper EZ Reader II); assay type: biochemical; conditions: CDK2/cyclinE1 0.5 nM, 180 min at 27° C.
# In short: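 CDK2/cyclinE1 (0.5 nM) phosphorylated 5-FAM-CDK7tide (2 μM) in MES buffer pH 6.5 with MgCl2, Tween 20 and BSA. Substrate and product were separated electrophoretically on a Caliper EZ Reader II. IC50 values came from nonlinear dose-response fits.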
# CDK9/cyclinT1 complex = CDK9/cyclinT1 complex (Homo sapiens, UniProt P50750); assay: In-vitro enzymatic inhibitory activity testing, CDK9 inhibition assay (Caliper EZ Reader II); assay type: biochemical; conditions: CDK9/cyclinT1 8 nM, 180 min at 27° C.
# CDK9/cyclinT1 complex, sequence (P50750 whole entry, species assumed): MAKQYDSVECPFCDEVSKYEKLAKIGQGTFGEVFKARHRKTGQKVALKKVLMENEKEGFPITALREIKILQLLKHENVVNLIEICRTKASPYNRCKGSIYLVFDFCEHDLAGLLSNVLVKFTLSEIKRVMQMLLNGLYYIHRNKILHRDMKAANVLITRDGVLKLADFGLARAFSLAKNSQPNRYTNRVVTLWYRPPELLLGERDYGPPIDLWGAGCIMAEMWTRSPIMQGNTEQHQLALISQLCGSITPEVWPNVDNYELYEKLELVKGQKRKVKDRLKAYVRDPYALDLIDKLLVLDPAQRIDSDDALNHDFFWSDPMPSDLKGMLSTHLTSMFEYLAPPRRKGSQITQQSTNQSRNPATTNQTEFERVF
# CDK9/cyclinT1 complex, sequence (O60563 whole entry partner, species assumed): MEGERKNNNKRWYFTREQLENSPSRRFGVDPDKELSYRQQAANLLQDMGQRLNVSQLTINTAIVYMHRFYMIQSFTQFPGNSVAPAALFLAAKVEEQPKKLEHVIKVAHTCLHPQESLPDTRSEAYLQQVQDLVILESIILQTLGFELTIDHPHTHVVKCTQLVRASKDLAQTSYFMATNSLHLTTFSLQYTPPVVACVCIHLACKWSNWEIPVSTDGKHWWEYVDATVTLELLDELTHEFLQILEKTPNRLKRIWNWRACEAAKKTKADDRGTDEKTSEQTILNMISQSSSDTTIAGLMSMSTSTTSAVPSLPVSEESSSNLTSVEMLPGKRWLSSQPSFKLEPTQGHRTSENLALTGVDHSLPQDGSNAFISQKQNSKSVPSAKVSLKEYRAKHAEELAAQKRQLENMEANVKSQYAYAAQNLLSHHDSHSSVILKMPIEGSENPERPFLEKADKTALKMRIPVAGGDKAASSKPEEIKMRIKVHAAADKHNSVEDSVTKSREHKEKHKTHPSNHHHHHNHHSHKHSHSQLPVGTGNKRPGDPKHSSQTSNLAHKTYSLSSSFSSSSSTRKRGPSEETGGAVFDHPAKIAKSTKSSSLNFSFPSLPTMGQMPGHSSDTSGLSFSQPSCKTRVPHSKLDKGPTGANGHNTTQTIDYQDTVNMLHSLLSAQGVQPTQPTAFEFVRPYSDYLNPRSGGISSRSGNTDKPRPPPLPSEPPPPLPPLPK
# In short: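 Phosphorylated and unphosphorylated fluorescent peptide were resolved by mobility-shift electrophoresis, with IC50 taken from a nonlinear regression of dose-response data. Reactions ran 180 min at 27 °C in MES buffer pH 6.5 with MgCl2, after 10 min enzyme–compound preincubation, using 8 nM CDK9/cyclinT1 and 5-FAM-CDK9tide.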
# [2] = molecular target: T1, CDK12 (aa686-1082)/cyclinK complex (Homo sapiens, UniProt Q9NYV4); assay: In-vitro enzymatic inhibitory activity testing, CDK12 inhibition assay (Caliper EZ Reader II); assay type: biochemical; conditions: CDK12/cyclinK 50 nM, 180 min at 27° C.; read-out: CDK12 IC50
# T1 construct: A CDK12 (aa686-1082)/cyclinK complex (50 nM)
# T1 sequence (Q9NYV4 686-1082, species assumed): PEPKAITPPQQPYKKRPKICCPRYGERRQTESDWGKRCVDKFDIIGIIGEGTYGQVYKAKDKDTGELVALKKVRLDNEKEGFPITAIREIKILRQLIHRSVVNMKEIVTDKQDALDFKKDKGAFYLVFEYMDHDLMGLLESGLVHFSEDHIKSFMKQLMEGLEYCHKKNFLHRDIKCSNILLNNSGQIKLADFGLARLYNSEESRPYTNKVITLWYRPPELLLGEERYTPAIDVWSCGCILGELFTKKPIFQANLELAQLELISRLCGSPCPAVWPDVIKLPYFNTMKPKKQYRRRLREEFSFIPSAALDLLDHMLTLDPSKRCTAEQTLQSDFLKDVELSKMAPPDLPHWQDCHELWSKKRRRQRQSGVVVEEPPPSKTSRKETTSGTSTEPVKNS
# T1 sequence (O75909 whole entry partner, species assumed, the tested form may be a part): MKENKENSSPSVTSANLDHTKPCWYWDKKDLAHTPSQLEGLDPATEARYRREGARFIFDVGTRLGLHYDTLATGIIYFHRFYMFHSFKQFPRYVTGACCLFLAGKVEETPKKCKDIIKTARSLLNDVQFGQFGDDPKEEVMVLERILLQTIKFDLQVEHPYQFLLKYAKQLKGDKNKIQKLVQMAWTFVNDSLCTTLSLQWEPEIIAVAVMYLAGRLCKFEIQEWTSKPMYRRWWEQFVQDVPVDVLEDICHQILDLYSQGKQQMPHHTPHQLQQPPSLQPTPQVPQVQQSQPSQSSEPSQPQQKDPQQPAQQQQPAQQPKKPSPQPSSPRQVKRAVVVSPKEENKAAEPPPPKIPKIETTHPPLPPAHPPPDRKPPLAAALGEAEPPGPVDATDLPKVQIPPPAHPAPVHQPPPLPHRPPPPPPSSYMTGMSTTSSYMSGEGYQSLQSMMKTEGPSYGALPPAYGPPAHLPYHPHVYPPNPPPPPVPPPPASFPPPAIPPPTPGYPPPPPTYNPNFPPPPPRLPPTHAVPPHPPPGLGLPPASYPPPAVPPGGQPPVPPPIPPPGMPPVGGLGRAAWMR
# In short: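 CDK12 (aa686-1082)/cyclinK complex at 50 nM was pre-incubated with compound for 10 min, then reacted 180 min at 27° C with ATP and 2 μM 5-FAM-CDK9tide in pH 6.5 MES buffer with 10 mM MgCl2. Reactions were EDTA-quenched and product resolved electrophoretically; IC50 from nonlinear curve fit.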
# [3] = system: human breast cancer cells HCC70; assay: Cell biological activity detection (CyQuant, 72 hours), HCC70; assay type: cell-based; conditions: Homo sapiens, HCC70, 72 h, incubation for 72 hours
# In short: (§1)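 IC50 derived from CyQuant Direct nuclear staining (488 nm excitation) after 72 h compound exposure at 37 °C, 5% CO2. Compounds tested in 9 concentrations from 10 μM, 1:4 steps, 0.2% DMSO, on A2780 or HCC70 cells plated overnight at 2000/well in RPMI 1640 + 10% FBS.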
# ovarian cancer A2780 = assay: Cell biological activity detection (CyQuant, 72 hours), A2780; assay type: cell-based, human; conditions: Homo sapiens, A2780, 72 h, A2780 cells, incubation for 72 hours
# In short: as §1
pIC50 [1],pIC50 (CDK2/cyclinE1 complex),pIC50 (CDK9/cyclinT1 complex),pIC50 [2],pIC50 (ovarian cancer A2780),Structure (SMILES),pIC50 [3]
6.70 to 7.70,5.30 to 6.70,4.30 to 5.30,5.30 to 6.70,6.70 to 7.70,CN(C)[C@H]1CC[C@H](Nc2ncc(C(F)(F)F)c(-c3c[nH]c4nc(C#N)ccc34)n2)C1 [Compound 66],> 7.70
> 7.70,4.30 to 5.30,4.30 to 5.30,4.30 to 5.30,6.70 to 7.70,"C[C@H]1COCCN1c1ccc2c(-c3nc(N[C@@H]4CCC45CNC5)ncc3C(F)(F)F)c[nH]c2n1 [Compound 67, (R)—N-(4-(6-((S)-3-methylmorpholine)-1H-pyrrolo[2,3-b]pyridin-3-yl)-5-(trifluoromethyl)pyrimidin-2-yl)-2-azaspiro[3.3]heptan-5-amine]",6.70 to 7.70
6.70 to 7.70,4.30 to 5.30,4.30 to 5.30,4.30 to 5.30,5.30 to 6.70,"C[C@H]1COCCN1c1ccc2c(-c3nc(N[C@H]4CC[C@@H](N)C4)ncc3C(F)(F)F)c[nH]c2n1 [Compound 68, (1S,3R)—N1-(4-(6-((S)-3-methylmorpholinyl)-1H-pyrrolo[2,3-b]pyridin-3-yl)-5-(trifluoromethyl)pyrimidin-2-yl)cyclopentan-1,3-diamine]",5.30 to 6.70
6.70 to 7.70,< 4.30,< 4.30,< 4.30,6.70 to 7.70,"CC1(C)COCC(Nc2ncc(C(F)(F)F)c(-c3c[nH]c4c(P(C)(C)=O)c(C#N)ccc34)n2)CN1 (stereo not drawn) [Compound 76, 3-(2-((3,3-dimethyl-1,4-oxazepan-6-yl)amino)-5-(trifluoromethyl)pyrimidin-4-yl)-7-(dimethylphosphoryl)-1H-indole-6-carbonitrile]",6.70 to 7.70
6.70 to 7.70,< 4.30,< 4.30,< 4.30,6.70 to 7.70,"CP(C)(=O)c1c(C#N)ccc2c(-c3nc(N[C@@H]4CCC45CNC5)ncc3C(F)(F)F)c[nH]c12 [Compound 77, (R)-3-(2-((2-azaspiro[3.3]heptan-5-yl)amino)-5-(trifluoromethyl)pyrimidin-4-yl)-7-(dimethylphosphoryl)-1H-indole-6-carbonitrile]",6.70 to 7.70
> 7.70,4.30 to 5.30,4.30 to 5.30,4.30 to 5.30,> 7.70,"CP(C)(=O)c1c(C#N)ccc2c(-c3nc(N[C@H]4CC[C@H](N)C4)ncc3C(F)(F)F)c[nH]c12 [Compound 78, 3-(2-(((1S,3S)-3-aminocyclopentyl)amino)-5-(trifluoromethyl)pyrimidin-4-yl)-7-(dimethylphosphoryl)-1H-indole-6-carbonitrile]",> 7.70
> 7.70,5.30 to 6.70,4.30 to 5.30,4.30 to 5.30,> 7.70,CP(C)(=O)c1cccc2c(-c3nc(N[C@@H]4CCC45CNC5)ncc3C(F)(F)F)c[nH]c12 [Compound 80],> 7.70
> 7.70,5.30 to 6.70,5.30 to 6.70,5.30 to 6.70,> 7.70,CP(C)(=O)c1cccc2c(-c3nc(N[C@H]4CC[C@H](N)C4)ncc3C(F)(F)F)c[nH]c12 [Compound 81],> 7.70
> 7.70,6.70 to 7.70,4.30 to 5.30,5.30 to 6.70,> 7.70,"CP(C)(=O)c1cccc2c(-c3nc(Nc4cn[nH]c4)ncc3C(F)(F)F)c[nH]c12 [Compound 84, (3-(2-((1H-pyrazol-4-yl)amino)-5-(trifluoromethyl)pyrimidin-4-yl)-1H-indole-7-yl)dimethylphosphine oxide]",> 7.70
6.70 to 7.70,4.30 to 5.30,4.30 to 5.30,< 4.30,6.70 to 7.70,CP(C)(=O)c1cccc2c(-c3nc(NCC4(O)CCC4)ncc3C(F)(F)F)c[nH]c12 [Compound 90],6.70 to 7.70
> 7.70,4.30 to 5.30,< 4.30,< 4.30,6.70 to 7.70,"CC(C)(O)CNc1ncc(C(F)(F)F)c(-c2c[nH]c3c(P(C)(C)=O)cccc23)n1 [Compound 95, (3-(2-((2-hydroxy-2-methylpropyl)amino)-5-(trifluoromethyl)pyrimidin-4-yl)-1H-indole-7-yl)dimethylphosphine oxide]",6.70 to 7.70
> 7.70,5.30 to 6.70,4.30 to 5.30,5.30 to 6.70,> 7.70,"CP(C)(=O)c1cccc2c(-c3nc(N[C@@H]4CC[C@@]5(CCNC5)C4)ncc3C(F)(F)F)c[nH]c12 [Compound 99, (3-(2-(((5R,7R)-2-azaspiro[4.4]non-7-yl)amino)-5-(trifluoromethyl)pyrimidin-4-yl)-1H-indole-7-yl)dimethylphosphine oxide]",> 7.70
6.70 to 7.70,4.30 to 5.30,5.30 to 6.70,5.30 to 6.70,6.70 to 7.70,"FC(F)(F)c1cnc(N[C@H]2CCCNC2)nc1-c1c[nH]c2cc(N3CCCC3)ccc12 [Compound 101, (S)—N-(piperidin-3-yl)-4-(6-(pyrrolidin-1-yl)-1H-indole-3-yl)-5-(trifluoromethyl)pyrimidin-2-amine, reference compound]",5.30 to 6.70
6.70 to 7.70,4.30 to 5.30,< 4.30,< 4.30,6.70 to 7.70,"CC(C)[C@@H](CO)Nc1ncc(C(F)(F)F)c(-c2c[nH]c3c(P(C)(C)=O)cccc23)n1 [Compound 115, (S)-(3-(2-((1-hydroxy-3-methylbutan-2-yl)amino)-5-(trifluoromethyl)pyrimidin-4-yl)-1H-indole-7-yl)dimethylphosphine oxide]",6.70 to 7.70
6.70 to 7.70,4.30 to 5.30,< 4.30,< 4.30,6.70 to 7.70,"CP(C)(=O)c1cccc2c(-c3nc(NC4(CO)CCCC4)ncc3C(F)(F)F)c[nH]c12 [Compound 116, (3-(2-((1-(hydroxymethyl)cyclopentyl)amino)-5-(trifluoromethyl)pyrimidin-4-yl)-1H-indole-7-yl)dimethylphosphine oxide]",6.70 to 7.70
> 7.70,4.30 to 5.30,< 4.30,< 4.30,> 7.70,"CP(C)(=O)c1cccc2c(-c3nc(NC4(CO)CCOC4)ncc3C(F)(F)F)c[nH]c12 (stereo not drawn) [Compound 117, (3-(2-((3-(hydroxymethyl)tetrahydrofuran-3-yl)amino)-5-(trifluoromethyl)pyrimidin-4-yl)-1H-indole-7-yl)dimethylphosphine oxide]",> 7.70
> 7.70,5.30 to 6.70,< 4.30,< 4.30,6.70 to 7.70,"CP(C)(=O)c1cccc2c(-c3nc(NC[C@H]4C[C@H]4CO)ncc3C(F)(F)F)c[nH]c12 [Compound 141, (3-(2-((((1S,2R)-2-(hydroxymethyl)cyclopropyl)methyl)amino)-5-(trifluoromethyl)pyrimidin-4-yl)-1H-indole-7-yl)dimethylphosphine oxide]",6.70 to 7.70
6.70 to 7.70,< 4.30,< 4.30,< 4.30,6.70 to 7.70,"CP(C)(=O)c1cccc2c(-c3nc(NCC(O)C(F)(F)F)ncc3C(F)(F)F)c[nH]c12 (stereo not drawn) [Compound 145, Dimethyl(3-(2-((3,3,3-trifluoro-2-hydroxypropyl)amino)-5-(trifluoromethyl)pyrimidin-4-yl)-1H-indole-7-yl)phosphine oxide]",6.70 to 7.70
